Test results as given in patent publication US8168592B2 (Amgen Inc., priority 2005, dated 2012).
Where two headings read alike, the source gives them in different places. Bridge positions count the residues as written; N and C are the ends. Square brackets hold non-standard residues; d marks the D form. Peptide text beside a SMILES is read from it. Oic = O=C(O)[C@@H]1C[C@@H]2CCCC[C@@H]2N1; 2Nal = N[C@@H](Cc1ccc2ccccc2c1)C(=O)O; hArg = N=C(N)NCCCC[C@H](N)C(=O)O; Tic = O=C(O)[C@@H]1Cc2ccccc2CN1; Cit = NC(=O)NCCC[C@H](N)C(=O)O; PEG = not defined here

Biological target: T1, CGRP1 receptor (Homo sapiens, UniProt O60894+Q16602)
T1 construct: SK-N-MC cells express CRLR and RAMP1, which form CGRP1 receptor; endogenous in cells; host or cells: SK-N-MC human neuroblastoma cells
Assay: in vitro CGRP1 receptor mediated cAMP assay in SK-N-MC cells
Type: cell-based
Description: The in vitro cAMP assay employed a human neuroblastoma-derived cell line (SK-N-MC). SK-N-MC cells express CRLR and RAMP1, which form CGRP1 receptor. CGRP1 receptor is a G-protein coupled receptor linked to the stimulatory G-protein, Gs. […] Briefly, two days before the assay, the cells were plated in 96-well plates in growth medium. On the day of the assay cells were rinsed with PBS followed by the addition of 60 μl of plasma free medium for 15 minutes at room temperature. […] The medium was then removed and the cells were lysed with 100 μl lysis buffer for 30 minutes at 37° C. for 30 minutes. Using a Tropix ELISA kit (Applied Biosystems, Foster City, Calif.), a cAMP-AP conjugate was diluted (1:100) and added (30 μl) to each well of a 96-well ELISA plate. An aliquot of the lysis buffer from the cell plate was then added to the ELISA plate followed by an aliquot of the cAMP antibody. This mixture was incubated for 1 hour at room temperature with gentle shaking. The ELISA plate was then washed 6× with wash buffer followed by the additions of a substrate enhancer. This mixture was incubated for 30 minutes at room temperature and then read on a MicroBeta Jet or EnVision plate reader. The results were analyzed using Prism (GraphPad).

[1] = Table 2C, unconjugated peptide, read-out: Peptide IC50

T1 sequence (Q16602 23-461): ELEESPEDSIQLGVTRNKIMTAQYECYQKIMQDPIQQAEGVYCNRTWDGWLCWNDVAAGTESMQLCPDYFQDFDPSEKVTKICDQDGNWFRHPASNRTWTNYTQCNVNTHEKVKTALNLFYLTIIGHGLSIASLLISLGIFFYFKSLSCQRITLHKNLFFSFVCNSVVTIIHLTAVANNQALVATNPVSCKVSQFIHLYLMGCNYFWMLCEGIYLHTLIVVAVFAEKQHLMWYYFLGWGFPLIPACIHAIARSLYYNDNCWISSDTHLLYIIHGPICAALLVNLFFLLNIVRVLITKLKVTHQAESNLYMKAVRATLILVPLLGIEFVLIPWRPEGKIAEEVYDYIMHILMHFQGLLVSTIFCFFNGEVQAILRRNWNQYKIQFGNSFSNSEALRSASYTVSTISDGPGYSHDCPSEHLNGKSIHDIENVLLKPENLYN
T1 sequence (O60894 27-148): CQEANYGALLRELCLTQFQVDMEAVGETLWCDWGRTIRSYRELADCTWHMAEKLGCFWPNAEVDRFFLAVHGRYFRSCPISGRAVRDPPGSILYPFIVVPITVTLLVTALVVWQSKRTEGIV

Molecule: SEQ ID NO:41 (Ac-WVTHRLAGLLS[dR]SGGVVRCNFVPTDVGPFAF-NH2; SMILES CC(=O)N[C@@H](Cc1c[nH]c2ccccc12)C(=O)N[C@H](C(=O)N[C@H](C(=O)N[C@@H](Cc1c[nH]cn1)C(=O)N[C@@H](CCCNC(=N)N)C(=O)N[C@@H](CC(C)C)C(=O)N[C@@H](C)C(=O)NCC(=O)N[C@@H](CC(C)C)C(=O)N[C@@H](CC(C)C)C(=O)N[C@@H](CO)C(=O)N[C@H](CCCNC(=N)N)C(=O)N[C@@H](CO)C(=O)NCC(=O)NCC(=O)N[C@H](C(=O)N[C@H](C(=O)N[C@@H](CCCNC(=N)N)C(=O)N[C@@H](CS)C(=O)N[C@@H](CC(N)=O)C(=O)N[C@@H](Cc1ccccc1)C(=O)N[C@H](C(=O)N1CCC[C@H]1C(=O)N[C@H](C(=O)N[C@@H](CC(=O)O)C(=O)N[C@H](C(=O)NCC(=O)N1CCC[C@H]1C(=O)N[C@@H](Cc1ccccc1)C(=O)N[C@@H](C)C(=O)N[C@@H](Cc1ccccc1)C(N)=O)C(C)C)[C@@H](C)O)C(C)C)C(C)C)C(C)C)[C@@H](C)O)C(C)C)
- antagonist activity in cAMP assay, in words: well tolerated

Molecule: CC(=O)N[C@@H](Cc1c[nH]c2ccccc12)C(=O)N[C@H](C(=O)N[C@H](C(=O)N[C@@H](Cc1cnc[nH]1)C(=O)N[C@@H](CCCNC(N)=O)C(=O)N[C@@H](CC(C)C)C(=O)N[C@@H](C)C(=O)NCC(=O)N[C@@H](CC(C)C)C(=O)N[C@@H](CC(C)C)C(=O)N[C@@H](CO)C(=O)N[C@@H](CCCNC(N)=O)C(=O)N[C@@H](CO)C(=O)NCC(=O)NCC(=O)N[C@H](C(=O)N[C@H](C(=O)N[C@@H](CCCCN=C(N)N)C(=O)N[C@@H](CCCCN)C(=O)N[C@@H](CC(N)=O)C(=O)N[C@@H](Cc1ccccc1)C(=O)N[C@H](C(=O)N1CCC[C@H]1C(=O)N[C@H](C(=O)N[C@@H](CC(=O)O)C(=O)N[C@H](C(=O)NCC(=O)N1CSC[C@H]1C(=O)N[C@@H](Cc1ccccc1)C(=O)N[C@@H](C)C(=O)N[C@@H](Cc1ccccc1)C(N)=O)C(C)C)[C@@H](C)O)C(C)C)C(C)C)C(C)C)[C@@H](C)O)C(C)C [compound 671]
- IC50 (Table 2A, read-out: IC50): 2.15 nM

Molecule: SEQ ID NO:30 (WVTHRLAGLLSXSGGVVRKNFVPTDVGPFAF; CGRP peptide; MOD_RES (1)..(1): …ON; MISC_FEATURE (12)..(12): xaa=citrulline; MISC_FEATURE (19)..(19): PEGylated; MOD_RES (31)..(31): AMIDATION)
- antagonist activity in cAMP assay, in words: relatively minor loss of in vitro antagonist activity

Molecule: CC(=O)N[C@@H](Cc1c[nH]c2ccccc12)C(=O)N[C@H](C(=O)N[C@H](C(=O)N[C@@H](Cc1c[nH]cn1)C(=O)N[C@@H](CCCNC(N)=O)C(=O)N[C@@H](CC(C)C)C(=O)N[C@@H](C)C(=O)NCC(=O)N[C@@H](CC(C)C)C(=O)N[C@@H](CC(C)C)C(=O)N[C@@H](CO)C(=O)N[C@@H](CCCNC(N)=O)C(=O)N[C@@H](CO)C(=O)NCC(=O)NCC(=O)N[C@H](C(=O)N[C@H](C(=O)N[C@@H](CCCCNC(=N)N)C(=O)N[C@@H](CCCCN)C(=O)N[C@@H](CC(N)=O)C(=O)N[C@@H](Cc1ccccc1)C(=O)N[C@H](C(=O)N1CCC[C@H]1C(=O)N[C@H](C(=O)N[C@@H](CC(=O)O)C(=O)N[C@H](C(=O)NCC(=O)N1[C@H](C(=O)N[C@@H](Cc2ccccc2)C(=O)N[C@@H](C)C(N)=O)C[C@@H]2CCCC[C@@H]21)C(C)C)[C@@H](C)O)C(C)C)C(C)C)C(C)C)[C@@H](C)O)C(C)C [compound 659] (Ac-WVTH[Cit]LAGLLS[Cit]SGGVV[hArg]KNFVPTDVG[Oic]FA-NH2)
- IC50 (Table 2A, read-out: IC50): > 1000 nM

Molecule: CC(=O)N[C@@H](Cc1c[nH]c2ccccc12)C(=O)N[C@H](C(=O)N[C@H](C(=O)N[C@@H](Cc1c[nH]cn1)C(=O)N[C@@H](CCCNC(N)=O)C(=O)N[C@@H](CC(C)C)C(=O)N[C@@H](C)C(=O)NCC(=O)N[C@@H](CC(C)C)C(=O)N[C@@H](CC(C)C)C(=O)N[C@@H](CO)C(=O)N[C@@H](CCCNC(N)=O)C(=O)N[C@@H](CO)C(=O)NCC(=O)NCC(=O)N[C@H](C(=O)N[C@H](C(=O)N[C@@H](Cc1ccc(NC(=N)N)cc1)C(=O)N[C@@H](CCCCN)C(=O)N[C@@H](CC(N)=O)C(=O)N[C@@H](Cc1ccccc1)C(=O)N[C@H](C(=O)N1CCC[C@H]1C(=O)N[C@H](C(=O)N[C@@H](CC(=O)O)C(=O)N[C@H](C(=O)NCC(=O)N1[C@H](C(=O)N[C@@H](Cc2ccccc2)C(=O)N[C@@H](C)C(=O)N[C@@H](Cc2ccccc2)C(N)=O)C[C@@H]2CCCC[C@@H]21)C(C)C)[C@@H](C)O)C(C)C)C(C)C)C(C)C)[C@@H](C)O)C(C)C [compound 664]
- IC50 (Table 2A, read-out: IC50): 2.29 to 2.95 nM

Molecule: SEQ ID NO:38 (Ac-WVTHRLAGLLSQSGGVVRK(PEG)NFVPTDVGPFAF-NH2; reading uncertain)
- more potent than the thioether-linked PEGylated analog SEQ ID NO:36 (amine linkage): more than 42 fold

Molecule: SEQ ID NO:36 (Ac-WVTHRLAGLLSQSGGVVRC(PEG)NFVPTDVGPFAF-NH2; reading uncertain)
- loss in antagonist activity on PEGylation relative to the unconjugated parent peptide (cAMP assay): greater than 12 fold

Molecule: CC(=O)N[C@@H](Cc1c[nH]c2ccccc12)C(=O)N[C@H](C(=O)N[C@H](C(=O)N[C@@H](Cc1c[nH]cn1)C(=O)N[C@@H](CCCNC(N)=O)C(=O)N[C@@H](CC(C)C)C(=O)N[C@@H](C)C(=O)NCC(=O)N[C@@H](CC(C)C)C(=O)N[C@@H](CC(C)C)C(=O)N[C@H](CO)C(=O)N[C@@H](CCCNC(N)=O)C(=O)N[C@@H](CO)C(=O)NCC(=O)NCC(=O)N[C@H](C(=O)N[C@H](C(=O)N[C@@H](CCCCNC(=N)N)C(=O)N[C@@H](CCCCN)C(=O)N[C@@H](CC(N)=O)C(=O)N[C@@H](Cc1ccc2ccccc2c1)C(=O)N[C@H](C(=O)N1CCC[C@H]1C(=O)N[C@H](C(=O)N[C@@H](CC(=O)O)C(=O)N[C@H](C(=O)NCC(=O)N1[C@H](C(=O)N[C@@H](Cc2ccccc2)C(=O)N[C@@H](C)C(=O)N[C@@H](Cc2ccccc2)C(N)=O)C[C@@H]2CCCC[C@@H]21)C(C)C)[C@@H](C)O)C(C)C)C(C)C)C(C)C)[C@@H](C)O)C(C)C [compound 953] (Ac-WVTH[Cit]LAGLL[dS][Cit]SGGVV[hArg]KN[2Nal]VPTDVG[Oic]FAF-NH2)
- IC50 [1]: 2.66 nM

Molecule: CC(=O)N[C@@H](Cc1c[nH]c2ccccc12)C(=O)N[C@H](C(=O)N[C@H](C(=O)N[C@@H](Cc1cnc[nH]1)C(=O)N[C@@H](CCCNC(N)=O)C(=O)N[C@@H](CC(C)C)C(=O)N[C@@H](C)C(=O)NCC(=O)N[C@@H](CC(C)C)C(=O)N[C@@H](CC(C)C)C(=O)N[C@@H](CO)C(=O)N[C@@H](CCCNC(N)=O)C(=O)N[C@@H](CO)C(=O)NCC(=O)NCC(=O)N[C@H](C(=O)N[C@H](C(=O)N[C@@H](CCCCN=C(N)N)C(=O)N[C@@H](CCCCN)C(=O)N[C@@H](CC(N)=O)C(=O)N[C@@H](Cc1ccccc1)C(=O)N[C@H](C(=O)N1CCC[C@H]1C(=O)N[C@H](C(=O)N[C@@H](CC(=O)O)C(=O)N[C@H](C(=O)NCC(=O)N1CCC[C@H]1C(=O)N1Cc2ccccc2C[C@H]1C(=O)N[C@@H](C)C(=O)N[C@@H](Cc1ccccc1)C(N)=O)C(C)C)[C@@H](C)O)C(C)C)C(C)C)C(C)C)[C@@H](C)O)C(C)C [compound 131] (Ac-WVTH[Cit]LAGLLS[Cit]SGGVV[hArg]KNFVPTDVGP[Tic]AF-NH2)
- IC50 (Table 2A, read-out: IC50): 89.9 nM

Molecule: CC(=O)N[C@@H](Cc1c[nH]c2ccccc12)C(=O)N[C@H](C(=O)N[C@H]1CCC(=O)NCCCC[C@@H](C(=O)NCC(=O)N[C@@H](CC(C)C)C(=O)N[C@@H](CC(C)C)C(=O)N[C@@H](CO)C(=O)N[C@@H](CCCNC(N)=O)C(=O)N[C@@H](CO)C(=O)NCC(=O)NCC(=O)N[C@H](C(=O)N[C@H](C(=O)N[C@@H](CCCCNC(=N)N)C(=O)N[C@@H](CCCCN)C(=O)N[C@@H](CC(N)=O)C(=O)N[C@@H](Cc2ccccc2)C(=O)N[C@H](C(=O)N2CCC[C@H]2C(=O)N[C@H](C(=O)N[C@@H](CC(=O)O)C(=O)N[C@H](C(=O)NCC(=O)N2CCC[C@H]2C(=O)N[C@@H](Cc2ccccc2)C(=O)N[C@@H](C)C(=O)N[C@@H](Cc2ccccc2)C(N)=O)C(C)C)[C@@H](C)O)C(C)C)C(C)C)C(C)C)NC(=O)[C@H](CC(C)C)NC(=O)[C@H](CCCNC(N)=O)NC(=O)[C@H](Cc2c[nH]cn2)NC1=O)C(C)C [compound 907] (Ac-WVEH[Cit]LKGLLS[Cit]SGGVV[hArg]KNFVPTDVGPFAF-NH2; lactam 3-7)
- IC50 [1]: 0.83 nM

Molecule: CC(=O)N[C@@H](Cc1c[nH]c2ccccc12)C(=O)N[C@H](C(=O)N[C@H](C(=O)N[C@@H](Cc1c[nH]cn1)C(=O)N[C@@H](CCCCNC(=N)N)C(=O)N[C@@H](CC(C)C)C(=O)N[C@H]1CCC(=O)NCCCC[C@@H](C(=O)N[C@@H](CCCNC(N)=O)C(=O)N[C@@H](CO)C(=O)NCC(=O)NCC(=O)N[C@H](C(=O)N[C@H](C(=O)N[C@@H](CCCCNC(=N)N)C(=O)N[C@@H](CCCCN)C(=O)N[C@@H](CC(N)=O)C(=O)N[C@@H](Cc2ccccc2)C(=O)N[C@H](C(=O)N2CCC[C@H]2C(=O)N[C@H](C(=O)N[C@@H](CC(=O)O)C(=O)N[C@H](C(=O)NCC(=O)N2[C@H](C(=O)N[C@@H](Cc3ccccc3)C(=O)N[C@@H](C)C(=O)N[C@@H](Cc3ccccc3)C(N)=O)C[C@@H]3CCCC[C@@H]32)C(C)C)[C@@H](C)O)C(C)C)C(C)C)C(C)C)NC(=O)[C@H](CC(C)C)NC(=O)[C@H](CC(C)C)NC(=O)CNC1=O)[C@@H](C)O)C(C)C [compound 942] (Ac-WVTH[hArg]LEGLLK[Cit]SGGVV[hArg]KNFVPTDVG[Oic]FAF-NH2; lactam 7-11)
- IC50 [1]: 0.83 nM
